Broadly, the pKi is the negative decadic logarithm of the Ki, by convention in mol/L. A low value points to a large Ki.

This experiment addresses AmpC β-lactamase (Escherichia coli, UniProt P00811). In words: biochemical. It counts as biochemical.

pKi: −log10 of the molar value.

Sequence of AmpC β-lactamase (P00811 20-377): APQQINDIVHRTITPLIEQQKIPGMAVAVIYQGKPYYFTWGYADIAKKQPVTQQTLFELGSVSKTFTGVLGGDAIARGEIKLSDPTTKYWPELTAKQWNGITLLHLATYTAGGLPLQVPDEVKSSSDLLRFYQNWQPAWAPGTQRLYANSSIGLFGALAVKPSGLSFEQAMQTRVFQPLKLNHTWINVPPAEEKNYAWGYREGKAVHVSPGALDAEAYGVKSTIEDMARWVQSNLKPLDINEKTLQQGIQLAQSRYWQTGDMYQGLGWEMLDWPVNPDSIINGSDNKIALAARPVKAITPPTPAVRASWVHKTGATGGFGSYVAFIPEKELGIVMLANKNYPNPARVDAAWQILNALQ

Turning to `Cc1noc(C)c1S(=O)(=O)Nc1cc(B(O)O)ccc1C(=O)O` [compound 12], the “increase of affinity for AmpC compared to non-carboxylate analog” value (4-carboxy derivative vs non-carboxylate analog (6–9, 1)) was “performed worse with respect to its analog”.
In turn, `O=C(O)c1ccc(C(=O)Nc2cccc(S(=O)(=O)Nc3cc(B(O)O)ccc3C(=O)O)c2)cc1` [compound 13] had a negative logarithm of the Ki (pKi) of 7.00.

Source of the values: paper PMC3177945 (Bioorganic & medicinal chemistry letters, 2010).
